In patent US6410558B1, “Fungicides for the control of take-all disease of plants” (Monsanto Technology LLC, priority 1991, dated 2002):

Columns and labels:
[1] = tested on: Ggt; experiment: In vivo Assay: control of Ggt on wheat grown in pots of Ggt-infested soil, root disease rating; parameters: species or system Gaeumannomyces graminis var. tritici; settings: Gaeumannomyces graminis, 672 h; 0.5 mg active ingredient per pot; 'Bergen' or 'Anza' wheat in Ggt-infested soil; after four weeks; vs untreated control; read-out: In vivo, percent disease control
Experimental: Compounds are tested for control of Ggt on ‘Bergen’ or ‘Anza’ varieties of wheat grown in 3-inch square pots containing soil infested with Ggt. The infestation is accomplished by mixing the soil with an inoculum prepared by growing Ggt on ¼ strength potato dextrose agar (4.875 g potato dextrose agar, 5.0 g Bacto agar, 500 mL distilled, deionized water) in plates and using plugs from the plates to infest sterile oats (400 cc whole oats, 350 mL deionized water, autoclaved). After a one-month incubation period at room temperature, the oats are dried and mixed with the soil at 4% v/v. Four wheat seeds are placed on top of the soil in each pot. The test compounds are prepared as an 1:9 acetone/water v/v solution containing 0.18% Tween® 20 to provide a treatment rate of 0.5 mg active ingredient per pot, treated with 3 mL test solution per pot. Five pots are used for each treatment level and the controls, which are untreated, inoculated and non-inoculated pots. After one hour drying time, the seeds are covered with more of the appropriate soil and a layer of vermiculite. The pots are placed in a growth chamber and watered each day. After four weeks, each pot is evaluated for evidence of disease by examination of the seminal roots of each plant under a dissecting microscope. A 0 to 5 rating scale having the following meanings is used:
0=no runner hyphae or lesions present
1=runner hyphae and a few small lesions present on <10% of root system
2=runner hyphae and small lesions present on 10-25% of root system
3=runner hyphae and lesions present on 25-50% of root system
4=runner hyphae and many, large, coalescing lesions on >50% of root system
5=root system and culm completely inundated with lesions and runner hyphae
From each set of five replicates a high and low score is eliminated and a replicate mean is calculated by the average of the remaining three scores. This mean score is then compared to the untreated control score and a percent disease control is calculated.

[2] = tested on: Gaeumannomyces graminis var. tritici (Ggt); experiment: In vitro Assay: mycelial growth of Ggt on minimal media agar plates containing test compound; type: cell-based; settings: dark, 19-20° C., 4 to 5 days, diameter of mycelial growth; for inhibition at 0.1 ppm / inhibition at 1 ppm / inhibition at 10 ppm: Gaeumannomyces graminis; for inhibition at 0.1 ppm: read-out: In vitro (ppm) 0.1, Percent Inhibition; for inhibition at 1 ppm: read-out: In vitro (ppm) 1, Percent Inhibition; for inhibition at 10 ppm: read-out: In vitro (ppm) 10, Percent Inhibition
How it was run: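 Ggt mycelial diameter read after 4 to 5 days in darkness at 19-20° C, from three 4-mm plugs placed on Czapek Dox minimal agar containing test compound delivered in acetone. Inhibition expressed as percent versus untreated plates, plug size (4 mm) subtracted from both.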

Compound | pest or weed control at 0.5 mg/pot [1] [%] | inhibition at 0.1 ppm ([2]; 0.1 ppm in minimal media agar) [%] | inhibition at 1 ppm ([2]; 1 ppm in minimal media agar) [%] | inhibition at 10 ppm ([2]; 10 ppm in minimal media agar) [%] | In vitro (ppm) 0.1, Percent Inhibition ([2]; 0.1 ppm in minimal media agar) | In vitro (ppm) 1, Percent Inhibition ([2]; 1 ppm in minimal media agar) | In vitro (ppm) 10, Percent Inhibition ([2]; 10 ppm in minimal media agar) [%]
CCN(SC)C(=O)c1sccc1[Si](C)(C)C [Example 272, N-Ethyl-N-(methylthio)-3-(trimethylsilyl)-2-thiophenecarboxamide] | 0 | 14 | 23 | 100 |  |  | 
CCNC(=O)c1c(C)cccc1C(C)(C)C [Example 8, 2-(1,1-Dimethylethyl)-N-ethyl-6-methylbenzamide] | 85 | 19 | 97 | 100 |  |  | 
CCNC(=O)c1c(Cl)cccc1NC(C)(C)C [Example 192, 2-Chloro-6-[(1,1-dimethylethyl)amino]-N-ethylbenzamide] | 99 | 86 | 95 | 95 |  |  | 
CCNC(=O)c1c([Si](C)(C)C)ccc([N+](=O)[O-])c1Cl [Example 216, 2-Chloro-N-ethyl-3-nitro-6-(trimethylsilyl)benzamide] | 68 | 25 | 54 | 92 |  |  | 
CCNC(=O)c1c(Cl)cccc1[Si](C)(C)CBr [Example 210, 2-[(Bromomethyl)dimethylsilyl]-6-chloro-N-ethyl-benzamide] | 74 | 85 | 88 | 94 |  |  | 
CCNC(=O)c1c([Si](C)(C)C)ccc(OC)c1Cl [Example 219, 2-Chloro-N-ethyl-3-methoxy-6-(trimethylsilyl)benzamide] | 97 | 50 | 94 | 100 |  |  | 
CCN(CC)C(=O)c1c(C(F)(F)F)cccc1[Si](C)(C)C [Example 61, N,N-Diethyl-2-(trimethylsilyl)-6-(trifluoromethyl)benzamide] | 1 | 9 | 29 | 49 |  |  | 
Cc1ccc(F)c([Si](C)(C)C)c1C(=O)N(C)C(C)(C)C [Example 11, N-(1,1-Dimethylethyl)-3-fluoro-N,6-dimethyl-2-(trimethylsilyl)benzamide] |  | < 0 | < 0 | 24 |  |  | 
C[Si](C)(C)c1cccc(Cl)c1C(=O)NCc1ccc([N+](=O)[O-])cc1 [Example 137, 2-Chloro-N-[(4-nitrophenyl)-methyl]-6-(trimethylsilyl)-benzamide] |  | 17 | 61 | 100 |  |  | 
COc1ccc(CNC(=O)c2c(Cl)cccc2[Si](C)(C)C)cc1 [Example 136, 2-Chloro-N-[(4-methoxyphenyl)methyl]-6-(trimethylsilyl)benzamide] |  | 3 | 26 | 100 |  |  | 
CCNC(=O)c1sc2c(c1[Si](C)(C)C)CCCC2 [Example 274, N-Ethyl-3-(trimethylsilyl)-4,5,6,7-tetrahydrobenzo[B]thiophene-2-carboxamide] |  | < 0 | 10 | 67 |  |  | 
CCNC(=O)c1ccccc1OC(C)(C)C [Example 247, N-Ethyl-2-(1,1-dimethylethoxy)benzamide] |  | < 0 | 16 | 59 |  |  | 
CC(C)CNC(=O)c1c(Cl)cccc1[Si](C)(C)C [Example 162, 2-Chloro-N-(2-methylpropyl)-6-(trimethylsilyl)benzamide] |  | 3 | < 0 | 57 |  |  | 
CCNC(=O)n1nccc1[Si](C)(C)C [Example 284, N-Ethyl-5-(trimethylsilyl)-1H-pyrazole-1-carboxamide] |  | 23 | 35 | 91 |  |  | 
C#CCNC(=O)c1c(Br)cccc1[Si](C)(C)C [Example 206, 2-Bromo-N-2-propynyl-6-(trimethylsilyl)benzamide] |  | 86 | 97 | 100 |  |  | 
2-Chloro-N-ethyl-6-(9-phenylethenyl)benzamide [Example 116] |  |  |  |  | N (If the calculation resulted in “0” or less, as compared to the untreated control, a “N” is shown to indicate no control.) | N (If the calculation resulted in “0” or less, as compared to the untreated control, a “N” is shown to indicate no control.) | 33
CN(Cc1ccc(C(C)(C)C)cc1)C(=O)c1c(Cl)cccc1[Si](C)(C)C [Example 101, 2-Chloro-N-[[4-(1,1-dimethylethyl)phenyl]methyl]-N-methyl-6-(trimethylsilyl)-benzamide] |  | 10 | 21 | 62 |  |  | 
CCNC(=O)c1c([Si](C)(C)C)ccc(C)c1Cl [Example 230, 2-Chloro-N-ethyl-3-methyl-6-(trimethylsilyl)benzamide] |  | 88 | 96 | 96 |  |  | 
C[Si](C)(C)c1cccc(Cl)c1C(=O)NCc1ccccn1 [Example 135, 2-Chloro-N-(2-pyridinylmethyl)-6-(trimethylsilyl)benzamide] |  | 22 | 17 | 39 |  |  | 
C[Si](C)(C)c1cccc(Cl)c1C(=O)NCCCCl [Example 30, 2-Chloro-N-(3-chloropropyl)-6-(trimethylsilyl)benzamide] |  | < 0 | 60 | 80 |  |  | 
CCNC(=O)c1c(Br)cccc1[Si](C)(C)C [Example 176, 2-Bromo-N-ethyl-6-(trimethylsilyl)benzamide] |  | 83 | 97 | 97 |  |  | 
CCNC(=O)c1ccncc1[Si](C)(C)C [Example 124, N-Ethyl-3-(trimethylsilyl)-4-pyridinecarboxamide] |  | < 0 | < 0 | 62 |  |  | 
CCN(CC)C(=O)c1c(C)ccc(F)c1[Si](C)(C)C(C)(C)C [Example 10, 2-[(1,1-Dimethylethyl)dimethylsilyl]-N,N-diethyl-3-fluoro-6-methylbenzamide] |  | < 0 | < 0 | 50 |  |  | 
C[Si](C)(C)c1ccc(F)c([Si](C)(C)C)c1C(=O)N1CCCC1 [Example 118, 1-[3-Fluoro-2,6-bis(trimethylsilyl)benzoyl]pyrrolidine] |  | < 0 | < 0 | 38 |  |  | 
CCNC(=O)c1occc1[Si](C)(C)C [Example 252, N-Ethyl-3-(trimethylsilyl)-2-furancarboxamide] |  | 5 | 28 | 100 |  |  | 
CCNC(=O)c1c(Cl)cccc1[Si](C)(C)c1ccccc1 [Example 184, 2-Chloro-6-(dimethylphenylsilyl)-N-ethylbenzamide] |  | < 0 | 11 | 83 |  |  | 
Cc1ccccc1NC(=O)c1ccccc1[Si](C)(C)C [Example 121, N-(2-Methylphenyl)-2-(trimethylsilyl)benzamide] |  | 4 | 8 | 31 |  |  | 
CCN(CC)C(=O)c1sccc1[Si](C)(C)C [Example 255, N,N-Diethyl-3-(trimethylsilyl)-2-thiophenecarboxamide] |  | < 0 | < 0 | 73 |  |  | 
CCN(COC)C(=O)c1c(Cl)cccc1[Si](C)(C)C [Example 46, 2-Chloro-N-ethyl-N-(methoxymethyl)-6-(trimethylsilyl)benzamide] |  | 15 | 11 | 44 |  |  | 
CCNC(=O)c1sc(C)c(C)c1[Si](C)(C)C [Example 286, 4,5-Dimethyl-N-ethyl-3-(trimethylsilyl)-2-thiophenecarboxamide] |  | 76 | 93 | 100 |  |  | 
